Measured values taken from US11357728B2, “Liposome having inner water phase containing sulfobutyl ether cyclodextrin salt” (CSPC ZHONGQI PHARMACEUTICAL TECHNOLOGY (SHIJIAZHUANG) CO., …, priority 2009, dated 2022).

Experiments:
[1] = test system: Prostate RM-1 Tumor Model; test: Anti-tumor efficacies of topotecan liposomes on prostate RM-1 tumor model; assay type: in vivo, female C57 mice; details: single i.v. 10 mg/kg; for Tumor volume (mm^3): n = 10, x ± sd
Method: RM-1 […] cancer cells were collected, and diluted with 1640 medium. After dilution, the tumor cell number was modulated to 2.0×10^6 cells/ml. 0.2 mL of the tumor cell suspension containing about 4×10^5 tumor cells was inoculated into forward limb oxter subcutaneous tissue of female C57 mice under aseptic condition. Twelve days after inoculation, mice were randomized by tumor volume into groups and administered with a single i.v. injection at a dose of 10 mg/kg.
The mice were bred normally after administration. Tumor diameters were measured to dynamically evaluate anti-tumor efficacies of different formulations. Tumor volume (TV) was calculated with the following formula: TV=½×a×b^2, in which a and b represent length and width, respectively.
The tumor volumes were calculated by using the measurement results. The experiment data were analyzed using SPSS 11.5 statistics software.

KM mice = test: Toxicity of liposomal formulations in KM mice
[2] = dosage level 40.6 mg/kg topotecan, two female KM mice per group, 14 days

Structure (SMILES): CC[C@@]1(O)C(=O)OCc2c1cc1n(c2=O)Cc2cc3c(CN(C)C)c(O)ccc3nc2-1 [Free topotecan, topotecan]
- suppression of tumor growth in comparison with 5% glucose for injection as control ([1]; RM-1 tumor model): did not significantly suppress the growth of tumor
- Tumor volume (mm^3) ([1]; day 0 after administration): 223.0 ± 65.7 mm^3
- Tumor volume (mm^3) ([1]; day 2 after administration): 484.0 ± 154.7 mm^3
- Tumor volume (mm^3) ([1]; day 4 after administration): 606.0 ± 183.1 mm^3
- Tumor volume (mm^3) ([1]; day 6 after administration): 1060.7 ± 393.0 mm^3
- Tumor volume (mm^3) ([1]; day 8 after administration): 1301.8 ± 563.7 mm^3
- Tumor volume (mm^3) ([1]; day 9 after administration): 1628.5 ± 835.4 mm^3
- Tumor volume (mm^3) ([1]; day 13 after administration): 3592.9 ± 1523.5 mm^3
- Tumor volume (mm^3) ([1]; day 15 after administration): 6639.3 ± 2388.2 mm^3
- Number of Animals with >15% weight loss (KM mice; dosage level 32.5 mg/kg topotecan, two female KM mice per group, 14 days): 1
- Number of Animals with >15% weight loss (KM mice; [2]): 2
- number of dead animals (KM mice; [2]): 1
- order of toxicity (KM mice; topotecan formulations, KM mice): free topotecan<liposome having SBE-CD/TA as inner water phase<liposome having sucrose octasulfate as inner water phase
